Test results published in article PMC4042406 (British journal of haematology, 2011).
Values joined by “and” are separate entries in the source; they are usually repeats but may differ in a detail not shown here. Identical values can stand only once.

Experiments:
MM.1S cells [1] = experiment: Immunoblotting, comparison of LCQ195, flavopiridol and Taxol; conditions: equipotent doses: LCQ195 1 μM, flavopiridol 50 nM; 4-24 hrs
U266 MM cell line = experiment: MTT colorimetric survival assay; type: cell-based, human; conditions: read-out: EC50 (viability), U266, 0-4 μM, 48 hrs
MM.1S cells [2] = experiment: Gene expression profiling; type: cell-based, human; conditions: 2 μM, 2-24hrs
CDK2/cyclin A [3] = molecular target: T1, CDK2/cyclin A (Homo sapiens, UniProt P24941); experiment: Invitrogen Z'-LYTE in vitro kinase activity assay; type: biochemical; conditions: 500 nM LCQ195, 100 μM ATP, 1% DMSO
[4] = tested on: CD138+ selected primary MM cells; experiment: CellTiterGlo viability of purified primary tumor cells from MM patients; type: cell-based, human; conditions: increasing doses, 48 hrs
MM.1S cells [5] = experiment: Annexin V / PI flow cytometric analysis of apoptosis; type: cell-based, human; conditions: 2 μM, 4-48 hrs
Dox40 MM cell line = experiment: MTT colorimetric survival assay; type: cell-based, human; conditions: read-out: EC50 (viability), Dox40, 0-4 μM, 48 hrs
[6] = tested on: Bcl-2 over-expressing MM.1S; experiment: Survival of Bcl-2 over-expressing MM.1S vs parental cells; type: cell-based, human; conditions: LCQ195 treatment for 48 hrs
MM.1S cells [7] = experiment: Immunoblotting analysis of LCQ195-treated cells; type: cell-based, human; conditions: 2 μM
MM.1S cells [8] = experiment: InnoCyte Cytochrome C release assay; type: cell-based, human
MM.1S cells [9] = experiment: Drug combination viability; type: cell-based, human; conditions: data not shown
HS-5 BMSCs = experiment: MTT viability of non-malignant stromal cells; type: cell-based, human; conditions: read-out: calculated EC50 (viability); non-malignant HS-5 BMSCs
CDK2/cyclin E = CDK2/cyclin E (Homo sapiens, UniProt P24941); experiment: Millipore KinaseProfilerXL kinase activity, dose titration; type: biochemical; conditions: 5-log dose titration 0.001-10μM
[10] = tested on: immortalized hepatocyte cell line THLE-3; experiment: MTT viability of immortalized hepatocytes; type: cell-based; conditions: read-out: calculated EC50 (viability); immortalized hepatocytes THLE-3
KMS-12-BM MM cell line = experiment: MTT colorimetric survival assay; type: cell-based, human; conditions: read-out: EC50 (viability), 0-4 μM, 48 hrs
S6B45 MM cell line = experiment: MTT colorimetric survival assay; type: cell-based, human; conditions: read-out: EC50 (viability), S6B45, 0-4 μM, 48 hrs
CHEK2 (CHK2) = CHEK2 (CHK2) (Homo sapiens, UniProt O96017); experiment: Invitrogen Z'-LYTE in vitro kinase activity assay; type: biochemical; conditions: 500 nM LCQ195, 100 μM ATP, 1% DMSO
XG-1 MM cell line = experiment: MTT colorimetric survival assay; type: cell-based, human; conditions: read-out: EC50 (viability), XG-1, 0-4 μM, 48 hrs
CDK5/p35 = CDK5/p35 (Homo sapiens, UniProt Q00535); experiment: Invitrogen Z'-LYTE in vitro kinase activity assay; type: biochemical; conditions: 500 nM LCQ195, 100 μM ATP, 1% DMSO
CDK2/cyclin A [11] = molecular target: T1, CDK2/cyclin A; experiment: Millipore KinaseProfilerXL kinase activity, dose titration; type: biochemical; conditions: 5-log dose titration 0.001-10μM
OPM2 MM cell line = experiment: MTT colorimetric survival assay; type: cell-based, human; conditions: read-out: EC50 (viability), OPM2, 0-4 μM, 48 hrs
panel of MM cell lines = experiment: MTT colorimetric survival assay, panel of MM cell lines; type: cell-based, human; conditions: read-out: EC50 (viability), majority of MM cell lines, 0-4 μM, 48 hrs
CLK3 = CLK3 (Homo sapiens, UniProt P49761); experiment: Invitrogen Z'-LYTE in vitro kinase activity assay; type: biochemical; conditions: 500 nM LCQ195, 100 μM ATP, 1% DMSO
NOP2 MM cell line = experiment: MTT colorimetric survival assay; type: cell-based, human; conditions: read-out: EC50 (viability), NOP2, 0-4 μM, 48 hrs
Delta 47 MM cell line = experiment: MTT colorimetric survival assay; type: cell-based, human; conditions: read-out: EC50 (viability), Delta 47, 0-4 μM, 48 hrs
PBMCs = experiment: MTT viability of PBMCs from healthy donors; type: cell-based, human; conditions: LCQ195 up to 8 μM for 48 hrs
CDK1/cyclin B = CDK1/cyclin B (Homo sapiens, UniProt P06493); experiment: Invitrogen Z'-LYTE in vitro kinase activity assay; type: biochemical; conditions: 500 nM LCQ195, 100 μM ATP, 1% DMSO
CDK5/p25 = CDK5/p25 (Homo sapiens, UniProt Q00535); experiment: Invitrogen Z'-LYTE in vitro kinase activity assay; type: biochemical; conditions: 500 nM LCQ195, 100 μM ATP, 1% DMSO
MM.1S cells [12] = experiment: Flow cytometric cell cycle analysis; type: cell-based, human; conditions: 2 μM for up to 48 hours

Sequence of CDK1/cyclin B (P06493 whole entry): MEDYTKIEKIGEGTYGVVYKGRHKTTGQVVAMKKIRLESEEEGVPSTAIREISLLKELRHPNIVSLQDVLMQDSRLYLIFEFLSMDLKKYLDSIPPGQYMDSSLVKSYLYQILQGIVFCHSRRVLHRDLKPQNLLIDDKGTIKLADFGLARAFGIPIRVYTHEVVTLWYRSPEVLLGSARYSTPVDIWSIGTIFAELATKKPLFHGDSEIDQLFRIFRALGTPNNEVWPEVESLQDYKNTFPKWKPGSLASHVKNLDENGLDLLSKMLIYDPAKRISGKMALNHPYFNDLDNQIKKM
Sequence of CDK5/p35 (Q00535 whole entry): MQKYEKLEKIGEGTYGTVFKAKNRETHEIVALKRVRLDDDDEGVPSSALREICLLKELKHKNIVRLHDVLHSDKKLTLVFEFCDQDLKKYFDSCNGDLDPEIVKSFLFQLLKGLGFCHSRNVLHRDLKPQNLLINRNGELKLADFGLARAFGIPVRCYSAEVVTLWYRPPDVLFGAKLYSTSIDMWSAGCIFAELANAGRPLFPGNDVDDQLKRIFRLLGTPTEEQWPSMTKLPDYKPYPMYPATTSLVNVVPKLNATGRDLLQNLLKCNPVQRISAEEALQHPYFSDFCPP
Sequence of CDK5/p25 (Q00535 whole entry): as above
Sequence of CLK3 (P49761 whole entry): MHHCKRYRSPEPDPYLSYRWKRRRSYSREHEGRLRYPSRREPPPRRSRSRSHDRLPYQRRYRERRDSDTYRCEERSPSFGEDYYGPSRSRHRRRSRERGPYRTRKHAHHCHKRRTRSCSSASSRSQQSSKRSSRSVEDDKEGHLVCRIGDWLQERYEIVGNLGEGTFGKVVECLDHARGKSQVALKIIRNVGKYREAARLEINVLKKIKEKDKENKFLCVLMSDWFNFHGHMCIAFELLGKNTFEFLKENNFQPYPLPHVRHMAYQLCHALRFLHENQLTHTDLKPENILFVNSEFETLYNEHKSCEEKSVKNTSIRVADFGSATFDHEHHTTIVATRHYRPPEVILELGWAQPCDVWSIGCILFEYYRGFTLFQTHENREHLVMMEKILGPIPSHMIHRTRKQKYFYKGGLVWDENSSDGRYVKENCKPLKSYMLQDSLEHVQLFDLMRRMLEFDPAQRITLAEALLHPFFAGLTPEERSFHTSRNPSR
Sequence of CHEK2 (CHK2) (O96017 whole entry): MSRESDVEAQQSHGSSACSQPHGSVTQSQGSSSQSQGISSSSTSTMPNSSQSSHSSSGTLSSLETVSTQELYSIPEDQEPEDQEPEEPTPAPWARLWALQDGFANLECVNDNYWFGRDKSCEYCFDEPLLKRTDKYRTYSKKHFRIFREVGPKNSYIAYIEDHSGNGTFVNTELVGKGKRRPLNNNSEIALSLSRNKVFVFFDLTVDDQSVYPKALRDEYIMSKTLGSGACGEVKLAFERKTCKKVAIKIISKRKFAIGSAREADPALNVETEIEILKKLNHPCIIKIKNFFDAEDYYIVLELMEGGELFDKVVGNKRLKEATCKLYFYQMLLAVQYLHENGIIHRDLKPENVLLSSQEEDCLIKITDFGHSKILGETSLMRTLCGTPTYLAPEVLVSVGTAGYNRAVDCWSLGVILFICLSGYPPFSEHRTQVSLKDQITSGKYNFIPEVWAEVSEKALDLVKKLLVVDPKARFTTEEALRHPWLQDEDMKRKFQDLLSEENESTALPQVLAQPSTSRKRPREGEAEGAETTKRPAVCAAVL

CN1CC[C@H](c2c(O)cc(O)c3c(=O)cc(-c4ccccc4Cl)oc23)[C@H](O)C1 [flavopiridol, reference compound]
p107 levels (immunoblotting) (MM.1S cells [1]): stable

CS(=O)(=O)N1CCC(NC(=O)c2[nH]ncc2NC(=O)c2c(Cl)cccc2Cl)CC1 [LCQ195]
EC50 (U266 MM cell line): < 1 µM
expression of transcription factors myc, IRF4 and XBP-1 (transcripts) (MM.1S cells [2]): suppressed
inhibition of kinase activity (CDK2/cyclin A [3]): potent inhibition
response of purified primary tumor cells (viability) [4]: responded
apoptosis (Annexin V / PI staining) (MM.1S cells [5]): induces apoptosis
EC50 (Dox40 MM cell line): > 4 µM
effect of bcl-2 overexpression on cell survival after treatment [6]: minimal effect on cell survival
caspase 8, caspase 3 and PARP cleavage (immunoblotting) (MM.1S cells [7]; 0-24 hrs): cleavage as early as 16 hrs
caspase 9 cleavage (immunoblotting) (MM.1S cells [7]; 0-24 hrs): no cleavage of caspase 9
Rb phosphorylation (immunoblotting) (MM.1S cells [7]; as early as 2 hours): pronounced decrease
cytochrome c release (MM.1S cells [8]; 2 μM LCQ195 for 4-24hrs): no changes
combination with bortezomib (MM.1S cells [9]): no synergy
combination with doxorubicin (MM.1S cells [9]): no synergy
EC50 (HS-5 BMSCs): > 4 µM
in vitro kinase activity in dose titration (CDK2/cyclin E): active at sub-μM concentrations
EC50 [10]: > 4 µM
p107 levels (immunoblotting) (MM.1S cells [1]): decreased
EC50 (KMS-12-BM MM cell line): < 1 µM
EC50 (S6B45 MM cell line): < 1 µM
inhibition of kinase activity (CHEK2 (CHK2)): partial inhibition
EC50 (XG-1 MM cell line): > 4 µM
inhibition of kinase activity (CDK5/p35): potent inhibition
in vitro kinase activity in dose titration (CDK2/cyclin A [11]): active at sub-μM concentrations
EC50 (OPM2 MM cell line): < 1 µM
EC50 (panel of MM cell lines): ~1 µM and ≤ 1 µM
inhibition of kinase activity (CLK3): partial inhibition
EC50 (NOP2 MM cell line): > 4 µM
EC50 (Delta 47 MM cell line): < 1 µM
percentage of viable PBMCs (PBMCs): ≥ 50%
inhibition of kinase activity (CDK1/cyclin B): potent inhibition
inhibition of kinase activity (CDK5/p25): potent inhibition
cell cycle profile (MM.1S cells [12]): increased the percentage of cells in S and G2/M phases early, followed by an increase in sub-G1 population

CC(C)C[C@H](NC(=O)[C@H](Cc1ccccc1)NC(=O)c1cnccn1)B(O)O [PS-341, reference compound]
cytochrome c release (MM.1S cells [8]; positive control, 50 nM for 12 hrs): significant release of cytochrome C
